Data on 11 compounds can be found in US20090221603A1, “HETEROCYCLIC AMIDE DERIVATIVES AS CALCIUM CHANNEL BLOCKERS” (priority 2005, published 2009).

Where two headings read alike, the source gives them in different places.

Experiment [1] has as its target T1, rat brain N-type calcium channel subunits (α1B+α2δ+β1b cDNA subunits) (Rattus norvegicus, UniProt Q02294).
T1 construct: expressed in transfected cells; host or cells: HEK 293 (stably, alternatively transiently, transfected)
As to the kind of experiment: N-type calcium channel block, whole cell patch clamp in HEK 293 cells. The format is cell-based. The note with it: holding potential −80 mV to +10 mV. The method, then: A. Transformation of HEK Cells: • N-type calcium channel blocking activity was assayed in human embryonic kidney cells, HEK 293, stably transfected with the rat brain N-type calcium channel subunits (α1B+α2δ+β1b cDNA subunits). Alternatively, N-type calcium channels (α1B+α2δ+β1b cDNA subunits), L-type channels (α1C+α2δ+β1b cDNA subunits) and P/Q-type channels (α1A+α2δ+β1b cDNA subunits) were transiently expressed in HEK 293 cells. Briefly, cells were cultured in Dulbecco's modified eagle medium (DMEM) supplemented with 10% fetal bovine serum, 200 U/ml penicillin and 0.2 mg/ml streptomycin at 37° C. with 5% CO2. At 85% confluency cells were split with 0.25% trypsin/1 mM EDTA and plated at 10% confluency on glass coverslips. At 12 hours the medium was replaced and the cells transiently transfected using a standard calcium phosphate protocol and the appropriate calcium channel cDNA's. Fresh DMEM was supplied and the cells transferred to 28° C./5% CO2. Cells were incubated for 1 to 2 days prior to whole cell recording.
B. Measurement of Inhibition
Whole cell patch clamp experiments were performed using an Axopatch 200B amplifier (Axon Instruments, Burlingame, Calif.) linked to a personal computer equipped with pCLAMP software. The external and internal recording solutions contained, respectively, 5 mM BaCl2, 10 mM MgCl2, 10 mM HEPES, 40 mM TEACl, 10 mM glucose, 87.5 mM CsCl (pH 7.2) and 108 mM CsMS, 4 mM MgCl2, 9 mM EGTA, 9 mM HEPES (pH 7.2). Currents were typically elicited from a holding potential of −80 mV to +10 mV using Clampex software (Axon Instruments). Typically, currents were first elicited with low frequency stimulation (0.067 Hz) and allowed to stabilize prior to application of the compounds. The compounds were then applied during the low frequency pulse trains for two to three minutes to assess tonic block, and subsequently the pulse frequency was increased to 0.2 Hz to assess frequency dependent block. Data were analyzed using Clampfit (Axon Instruments) and SigmaPlot 4.0 (Jandel Scientific).

In experiment [2] the target is T2, human α1G T-type channels (Homo sapiens, UniProt O43497).
T2 construct: expressed in transfected cells
T2 sequence (O43497 whole entry): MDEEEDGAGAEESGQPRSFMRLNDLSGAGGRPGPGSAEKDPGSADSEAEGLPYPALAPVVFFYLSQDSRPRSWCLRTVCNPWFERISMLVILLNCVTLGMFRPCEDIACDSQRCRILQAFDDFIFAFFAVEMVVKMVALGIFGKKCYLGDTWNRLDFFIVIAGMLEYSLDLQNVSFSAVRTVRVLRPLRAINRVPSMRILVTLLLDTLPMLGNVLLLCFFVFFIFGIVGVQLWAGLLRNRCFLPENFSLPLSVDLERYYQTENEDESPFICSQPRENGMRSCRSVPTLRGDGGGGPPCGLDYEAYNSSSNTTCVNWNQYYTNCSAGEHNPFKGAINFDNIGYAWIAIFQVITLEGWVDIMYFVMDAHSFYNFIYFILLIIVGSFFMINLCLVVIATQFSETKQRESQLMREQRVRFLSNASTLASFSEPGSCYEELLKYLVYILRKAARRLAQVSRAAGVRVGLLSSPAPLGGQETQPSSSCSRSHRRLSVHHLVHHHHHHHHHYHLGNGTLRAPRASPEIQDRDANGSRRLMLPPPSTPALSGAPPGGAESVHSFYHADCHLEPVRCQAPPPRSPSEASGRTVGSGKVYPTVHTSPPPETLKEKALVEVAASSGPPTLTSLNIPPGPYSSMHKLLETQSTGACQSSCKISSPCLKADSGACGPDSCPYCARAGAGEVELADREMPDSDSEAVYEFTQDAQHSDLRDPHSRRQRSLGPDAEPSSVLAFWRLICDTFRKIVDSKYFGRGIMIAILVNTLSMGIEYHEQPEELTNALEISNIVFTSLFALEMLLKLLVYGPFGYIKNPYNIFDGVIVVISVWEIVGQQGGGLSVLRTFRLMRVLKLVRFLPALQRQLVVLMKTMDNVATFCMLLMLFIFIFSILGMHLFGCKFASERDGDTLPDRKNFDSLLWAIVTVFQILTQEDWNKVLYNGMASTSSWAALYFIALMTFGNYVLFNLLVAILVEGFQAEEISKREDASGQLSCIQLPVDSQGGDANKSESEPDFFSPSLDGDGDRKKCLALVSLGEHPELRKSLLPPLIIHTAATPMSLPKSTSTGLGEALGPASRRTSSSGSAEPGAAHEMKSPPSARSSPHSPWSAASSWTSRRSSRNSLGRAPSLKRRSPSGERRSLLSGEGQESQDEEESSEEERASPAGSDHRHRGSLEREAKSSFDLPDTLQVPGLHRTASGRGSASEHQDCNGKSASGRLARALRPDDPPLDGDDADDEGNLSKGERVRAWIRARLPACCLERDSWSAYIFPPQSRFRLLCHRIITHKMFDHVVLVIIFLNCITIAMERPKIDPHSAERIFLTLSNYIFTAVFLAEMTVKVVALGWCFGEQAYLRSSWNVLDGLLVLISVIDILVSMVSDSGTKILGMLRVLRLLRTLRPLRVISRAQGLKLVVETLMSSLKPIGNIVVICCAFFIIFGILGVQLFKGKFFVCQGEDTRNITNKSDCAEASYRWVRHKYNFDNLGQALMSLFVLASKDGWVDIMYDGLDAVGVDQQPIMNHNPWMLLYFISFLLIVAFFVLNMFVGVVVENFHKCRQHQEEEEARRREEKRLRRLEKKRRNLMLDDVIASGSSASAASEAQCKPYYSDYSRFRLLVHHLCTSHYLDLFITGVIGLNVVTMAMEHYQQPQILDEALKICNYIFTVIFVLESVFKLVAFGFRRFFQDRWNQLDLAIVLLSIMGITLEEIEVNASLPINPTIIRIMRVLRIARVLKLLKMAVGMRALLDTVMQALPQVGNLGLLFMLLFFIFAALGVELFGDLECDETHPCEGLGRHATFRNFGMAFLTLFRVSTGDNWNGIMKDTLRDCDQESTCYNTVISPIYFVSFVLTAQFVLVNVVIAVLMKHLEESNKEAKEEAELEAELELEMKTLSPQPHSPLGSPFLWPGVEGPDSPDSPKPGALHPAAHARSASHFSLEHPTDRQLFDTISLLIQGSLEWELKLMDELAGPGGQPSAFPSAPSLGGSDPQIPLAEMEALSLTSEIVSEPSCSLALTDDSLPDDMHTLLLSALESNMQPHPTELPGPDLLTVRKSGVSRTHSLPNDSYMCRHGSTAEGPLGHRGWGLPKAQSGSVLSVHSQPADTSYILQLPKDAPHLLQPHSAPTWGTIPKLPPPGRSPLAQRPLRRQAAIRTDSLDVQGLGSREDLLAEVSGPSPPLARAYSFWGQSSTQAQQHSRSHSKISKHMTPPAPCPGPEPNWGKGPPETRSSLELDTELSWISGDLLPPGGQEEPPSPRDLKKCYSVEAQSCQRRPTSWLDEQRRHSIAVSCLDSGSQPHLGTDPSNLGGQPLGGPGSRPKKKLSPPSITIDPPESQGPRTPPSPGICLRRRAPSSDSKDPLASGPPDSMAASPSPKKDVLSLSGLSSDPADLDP
As to the kind of experiment: T-type calcium channel block, patch clamp in HEK cell lines. The format is cell-based. The note with it: mainly non-inactivated protocol; HEK cells expressing human α1G; read-out: IC50 @ −80 mV.

The test system of experiment [3] is tactile allodynia after L5/L6 spinal nerve ligation. Description: Spinal nerve ligation model of neuropathic pain, tactile allodynia (von Frey). The format is in vivo, rat. The settings on record: SNL rats; orally in propylene glycol solution, 300 mg/kg. From the text:
Spinal nerve ligation (SNL) injury was induced using the procedure of Kim and Chung, (Kim, S. H., et al., Pain (1992) 50:355-363) in male Sprague-Dawley rats (Harlan; Indianapolis, Ind.) weighing 200 to 300 grams. Anesthesia was induced with 2% halothane in O2 at 2 L/min and maintained with 0.5% halothane in O2. After surgical preparation of the rats and exposure of the dorsal vertebral column from L4 to S2, the L5 and L6 spinal nerves were tightly ligated distal to the dorsal root ganglion using 4-0 silk suture. The incision was closed, and the animals were allowed to recover for 5 days. […] Sham control rats underwent the same operation and handling as the experimental animals, but without SNL. The assessment of tactile allodynia consisted of measuring the withdrawal threshold of the paw ipsilateral to the site of nerve injury in response to probing with a series of calibrated von Frey filaments. Each filament was applied perpendicularly to the plantar surface of the ligated paw of rats kept in suspended wire-mesh cages. Measurements were taken before and after administration of drug or vehicle. Withdrawal threshold was determined by sequentially increasing and decreasing the stimulus strength (“up and down” method), analyzed using a Dixon non-parametric test (Chaplan S. R., et al., J Pharmacol Exp Ther (1994) 269:1117-1123), and expressed as the mean withdrawal threshold.

Experiment [4] relates to T-type over L-type channels. The settings on record: cited from earlier work.
[5] abbreviates: low frequency stimulation 0.067 Hz (tonic block), read-out: IC50 @ 0.067 Hz.
The mark [6] stands for this setting: pulse frequency 0.2 Hz (frequency dependent block), read-out: IC50 @ 0.2 Hz.

For orientation: IC50 means the midpoint of a concentration-inhibition curve. With `O=C(CNC(c1ccccc1)c1ccccc1)N1CCN(C(c2ccccc2)c2ccccc2)CC1` [Compound 1, 2-benzhydrylamino-1-(4-benzhydrylpiperazin-1-yl)ethanone], the values for the concentration for half-maximal inhibition (IC50) in experiment [1] (setting [5]), in experiment [1] (setting [6]) and in experiment [2] were 0.14 µM, 0.08 µM and 0.08 µM, respectively.

With `CN(CC(=O)N1CCN(C(c2ccccc2)c2ccccc2)CC1)C(c1ccccc1)c1ccccc1` [Compound 2, 2-benzhydryl(methyl)amino-1-(4-benzhydrylpiperazin-1-yl)ethanone], the values for the concentration for half-maximal inhibition (IC50) in experiment [1] (setting [5]), in experiment [1] (setting [6]) and in experiment [2] were 0.52 µM, 0.31 µM and 2.9 µM, respectively.

`CN(CC(=O)N1CCN(C(c2ccccc2)c2ccc(F)cc2)CC1)C(c1ccccc1)c1ccccc1` (centres unmarked) [Compound 6, 2-benzhydryl(methyl)amino-1-(4-((4-fluorophenyl)(phenyl)methyl)piperazin-1-yl)ethanone]: the concentration for half-maximal inhibition (IC50) in experiment [1] (setting [5]) came out at 0.17 µM; in experiment [1] (setting [6]), 0.12 µM; in experiment [2] it was 2 µM.

In the case of `O=C(COc1ccc(Cl)cc1Cl)N1CCN(C(c2ccccc2)c2ccccc2)CC1` [Compound 26, 1-(4-benzhydrylpiperazin-1-yl)-2-(2,4-dichlorophenoxy)ethanone], the IC50 is 0.25 µM in experiment [1] (setting [5]), 0.19 µM in experiment [1] (setting [6]) and 1.26 µM in experiment [2].

`O=C(CNC(c1ccccc1)c1ccccc1)N1CCN(C(c2ccc(F)cc2)c2ccc(F)cc2)CC1` [Compound 29, 2-(benzhydrylamino)-1-(4-(bis(4-fluorophenyl)methyl)piperazin-1-yl)ethanone]: the IC50 in experiment [1] (setting [5]) is 0.27 µM; in experiment [1] (setting [6]), 0.14 µM; in experiment [2], 9.69 µM.

Consider `O=C(COC(c1ccccc1)c1ccccc1)N1CCN(C(c2ccccc2)c2ccccc2)CC1` [Compound 30, 2-(benzhydryloxy)-1-(4-benzhydrylpiperazin-1-yl)ethanone], for which the results for the IC50 in experiment [1] (setting [5]), in experiment [1] (setting [6]) and in experiment [2] were 0.49 µM, 0.27 µM and 0.59 µM, respectively.

For the compound `O=C(COC(c1ccccc1)c1ccccc1)N1CCN(C(c2ccc(F)cc2)c2ccc(F)cc2)CC1` [Compound 46, 2-(benzhydryloxy)-1-(4-(bis(4-fluorophenyl)methyl)piperazin-1-yl)ethanone], the IC50 worked out at 0.92 µM in experiment [1] (setting [5]), 0.43 µM in experiment [1] (setting [6]) and 0.35 µM in experiment [2].

Regarding `O=C(C[S+]([O-])C(c1ccccc1)c1ccccc1)N1CCN(C(c2ccc(F)cc2)c2ccc(F)cc2)CC1` (centres unmarked) [Compound 48, 2-(benzhydrylsulfinyl)-1-(4-(bis(4-fluorophenyl)methyl)piperazin-1-yl)ethanone], the half-maximal inhibitory concentration (IC50) amounted to 0.22 µM in experiment [1] (setting [5]), 0.16 µM in experiment [1] (setting [6]) and 0.31 µM in experiment [2].

For `O=C(CNC(c1ccccc1)c1ccccc1)N1CCN(C(c2ccccc2)c2ccccc2)C(CO)C1` (centres unmarked) [Compound 49, 2-benzhydrylamino-1-(4-benzhydryl-3-hydroxymethylpiperazin-1-yl)ethanone], the reversal of allodynia entry in experiment [3] was “complete reversal of allodynia”. In addition, the IC50 in experiment [1] (setting [5]) is 0.49 µM; in experiment [1] (setting [6]), 0.29 µM; in experiment [2] it was 0.37 µM.

For the compound `COCC1CN(C(=O)CNC(c2ccccc2)c2ccccc2)CCN1C(c1ccccc1)c1ccccc1` (centres unmarked) [Compound 53, 2-benzhydrylamino-1-(4-benzhydryl-3-methoxymethylpiperazin-1-yl)ethanone], the IC50 in experiment [1] (setting [5]) turned out to be 0.25 µM; in experiment [1] (setting [6]) it was 0.15 µM; in experiment [2] it was 0.49 µM.

Turning to `COCC(=O)O[C@]1(CCN(C)CCCc2nc3ccccc3[nH]2)CCc2cc(F)ccc2[C@@H]1C(C)C` [Mibefradil], in experiment [4], the “selectivity for T-type over L-type channels” value was 10-30 fold.
